Values after ≈ are worked out from the molar mass of the structure shown.
How the values were obtained:
L929 cell lines = test: Cytotoxicity MTT assay on L929 fibroblasts; format: cell-based
Experimental: (§1) The cytotoxic effect of compounds 6a–6l was evaluated against L929 cell lines. For preliminary screening, the cytotoxic bioactivity of synthesized compounds was evaluated in vitro against L929 cell lines with the MTT assay. […] The effect of the compounds 6a–6l on the viability of L929 cell lines was analyzed by MTT assay as described in the previous work.[45]

C. albicans (ATCC 24433) = test: In vitro antifungal activity (CLSI) against C. albicans; format: cell-based; conditions: for MIC: Candida albicans, ATCC24433
Source text: (§2) Voriconazole and fluconazole (against candida strains) were used as standard reference drugs.

C. krusei (ATCC 6258) = test: In vitro antifungal activity (CLSI) against C. krusei; format: cell-based; conditions: for MIC: Pichia kudriavzevii, ATCC6258
Source text: as §2

C. glabrata (ATCC 9) = test: In vitro antifungal activity (CLSI) against C. glabrata; format: cell-based; conditions: for Antifungal activity (MIC), C. glabrata / MIC: C. glabrata ATCC 9; for Effectiveness against C. glabrata compared with fluconazole / Effectiveness against C. glabrata compared with voriconazole: from MIC values; for MIC: Nakaseomyces glabratus, ATCC9
Source text: as §2

[1] = test system: C. parapsilopsis (ATCC 22019); test: In vitro antifungal activity (CLSI) against C. parapsilosis; format: cell-based; conditions: for MIC: Lodderomyces parapsilosis, ATCC22019
Source text: as §2

[2] = Cytotoxicity MTT assay on L929 fibroblasts; format: cell-based; conditions: mouse, L929 fibroblast cells; 100 μM, 48 h, L929 cell lines, MTT
Experimental: as §1

2-(4-(5-((2-(4-Nitrophenyl)-2-oxoethyl)thio)-4-phenyl-4H-1,2,4-triazol-3-yl)phenyl)-1H-benz[d]imidazole-5(6)-carbonitrile [6a]
cell viability (%) (L929 cell lines; 100 µM): 34 ± 6.19% | Antifungal activity (MIC), C. albicans (C. albicans (ATCC 24433)): 31.25 µg/mL | Antifungal activity (MIC), C. krusei (C. krusei (ATCC 6258)): 125 µg/mL | Antifungal activity (MIC), C. glabrata (C. glabrata (ATCC 9)): 1.95 µg/mL | Effectiveness against C. glabrata compared with fluconazole (C. glabrata (ATCC 9)): two times more effective | Effectiveness against C. glabrata compared with voriconazole (C. glabrata (ATCC 9)): same activity | Antifungal activity (MIC), C. parapsilosis [1]: 62.5 µg/mL

COc1ccc(C(=O)CSc2nnc(-c3ccc(-c4nc5cc(C#N)ccc5[nH]4)cc3)n2-c2ccccc2)cc1 [6b, 2-(4-(5-((2-(4-Methoxyphenyl)-2-oxoethyl)thio)-4-phenyl-4H-1,2,4-triazol-3-yl)phenyl)-1H-benz[d]imidazole-5(6)-carbonitrile]
viability at 48 h, 100 µM [2]: 32.1 ± 1.38% | MIC (C. albicans (ATCC 24433)): 31.2 µg/mL (≈ 57.6 µM) | MIC (C. krusei (ATCC 6258)): 125 µg/mL (≈ 230 µM) | MIC (C. glabrata (ATCC 9)): 0.97 µg/mL (≈ 1.79 µM) | Effectiveness against C. glabrata compared with fluconazole (C. glabrata (ATCC 9)): four times more effective | Effectiveness against C. glabrata compared with voriconazole (C. glabrata (ATCC 9)): two times more effective | MIC [1]: 31.2 µg/mL (≈ 57.6 µM) | melting point: 177.6 °C

N#Cc1ccc(C(=O)CSc2nnc(-c3ccc(-c4nc5cc(C#N)ccc5[nH]4)cc3)n2-c2ccccc2)cc1 [6c, 2-(4-(5-((2-(4-Cyanophenyl)-2-oxoethyl)thio)-4-phenyl-4H-1,2,4-triazol-3-yl)phenyl)-1H-benz[d]imidazole-5(6)-carbonitrile]
cell viability (%) (L929 cell lines; 100 µM): 30.9 ± 1.42% | Antifungal activity (MIC), C. albicans (C. albicans (ATCC 24433)): 31.25 µg/mL | Antifungal activity (MIC), C. krusei (C. krusei (ATCC 6258)): 125 µg/mL | Antifungal activity (MIC), C. glabrata (C. glabrata (ATCC 9)): 1.95 µg/mL | Effectiveness against C. glabrata compared with fluconazole (C. glabrata (ATCC 9)): two times more effective | Effectiveness against C. glabrata compared with voriconazole (C. glabrata (ATCC 9)): same activity | Antifungal activity (MIC), C. parapsilosis [1]: 31.25 µg/mL

N#Cc1ccc2[nH]c(-c3ccc(-c4nnc(SCC(=O)c5ccc(F)cc5)n4-c4ccccc4)cc3)nc2c1 [6d, 2-(4-(5-((2-(4-Fluorophenyl)-2-oxoethyl)thio)-4-phenyl-4H-1,2,4-triazol-3-yl)phenyl)-1H-benz[d]imidazole-5(6)-carbonitrile]
cell viability (%) (L929 cell lines; 100 µM): 34.2 ± 5.13% | Antifungal activity (MIC), C. albicans (C. albicans (ATCC 24433)): 62.5 µg/mL | Antifungal activity (MIC), C. krusei (C. krusei (ATCC 6258)): 125 µg/mL | Antifungal activity (MIC), C. glabrata (C. glabrata (ATCC 9)): 1.95 µg/mL | Effectiveness against C. glabrata compared with fluconazole (C. glabrata (ATCC 9)): two times more effective | Effectiveness against C. glabrata compared with voriconazole (C. glabrata (ATCC 9)): same activity | Antifungal activity (MIC), C. parapsilosis [1]: 125 µg/mL

N#Cc1ccc2[nH]c(-c3ccc(-c4nnc(SCC(=O)c5ccc(-c6ccccc6)cc5)n4-c4ccccc4)cc3)nc2c1 [6e, 2-(4-(5-((2-([1,1′-Biphenyl]-4-yl)2-oxoethyl)thio)-4-phenyl-4H-1,2,4-triazol-3-yl)phenyl)-1H-benz[d]imidazole-5(6)-carbonitrile]
cell viability (%) (L929 cell lines; 100 μM, 48 h, L929 cell lines, MTT): 40 ± 8.71% | Antifungal activity (MIC), C. albicans (C. albicans (ATCC 24433)): 62.5 µg/mL | Antifungal activity (MIC), C. krusei (C. krusei (ATCC 6258)): 125 µg/mL | Antifungal activity (MIC), C. glabrata (C. glabrata (ATCC 9)): 1.95 µg/mL | Effectiveness against C. glabrata compared with fluconazole (C. glabrata (ATCC 9)): two times more effective | Effectiveness against C. glabrata compared with voriconazole (C. glabrata (ATCC 9)): same activity | Antifungal activity (MIC), C. parapsilosis [1]: 62.5 µg/mL

N#Cc1ccc2[nH]c(-c3ccc(-c4nnc(SCC(=O)c5ccc(Br)cc5)n4-c4ccccc4)cc3)nc2c1 [6f, 2-(4-(5-((2-(4-Bromophenyl)-2-oxoethyl)thio)-4-phenyl-4H-1,2,4-triazol-3-yl)phenyl)-1H-benz[d]imidazole-5(6)-carbonitrile]
cell viability (%) (L929 cell lines; 100 µM): 27.6 ± 1.02% | Antifungal activity (MIC), C. albicans (C. albicans (ATCC 24433)): 62.5 µg/mL | Antifungal activity (MIC), C. krusei (C. krusei (ATCC 6258)): 125 µg/mL | Antifungal activity (MIC), C. glabrata (C. glabrata (ATCC 9)): 1.95 µg/mL | Effectiveness against C. glabrata compared with fluconazole (C. glabrata (ATCC 9)): two times more effective | Effectiveness against C. glabrata compared with voriconazole (C. glabrata (ATCC 9)): same activity | Antifungal activity (MIC), C. parapsilosis [1]: 62.5 µg/mL

N#Cc1ccc2[nH]c(-c3ccc(-c4nnc(SCC(=O)c5ccc(Cl)c(Cl)c5)n4-c4ccccc4)cc3)nc2c1 [6g, 2-(4-(5-((2-(3,4-Dichlorophenyl)-2-oxoethyl)thio)-4-phenyl-4H-1,2,4-triazol-3-yl)phenyl)-1H-benz[d]imidazole-5(6)-carbonitrile]
cell viability (%) (L929 cell lines; 100 µM): 34.6 ± 3.51% | Antifungal activity (MIC), C. albicans (C. albicans (ATCC 24433)): 125 µg/mL | Antifungal activity (MIC), C. krusei (C. krusei (ATCC 6258)): 250 µg/mL | Antifungal activity (MIC), C. glabrata (C. glabrata (ATCC 9)): 1.95 µg/mL | Effectiveness against C. glabrata compared with fluconazole (C. glabrata (ATCC 9)): two times more effective | Effectiveness against C. glabrata compared with voriconazole (C. glabrata (ATCC 9)): same activity | Antifungal activity (MIC), C. parapsilosis [1]: 31.25 µg/mL

N#Cc1ccc2[nH]c(-c3ccc(-c4nnc(SCC(=O)c5ccc(F)cc5F)n4-c4ccccc4)cc3)nc2c1 [6h, 2-(4-(5-((2-(2,4-Difluorophenyl)-2-oxoethyl)thio)-4-phenyl-4H-1,2,4-triazol-3-yl)phenyl)-1H-benz[d]imidazole-5(6)-carbonitrile]
cell viability (%) (L929 cell lines; 100 µM): 28.1 ± 1.48% | Antifungal activity (MIC), C. albicans (C. albicans (ATCC 24433)): 62.5 µg/mL | Antifungal activity (MIC), C. krusei (C. krusei (ATCC 6258)): 62.5 µg/mL | Antifungal activity (MIC), C. glabrata (C. glabrata (ATCC 9)): 1.95 µg/mL | Effectiveness against C. glabrata compared with fluconazole (C. glabrata (ATCC 9)): two times more effective | Effectiveness against C. glabrata compared with voriconazole (C. glabrata (ATCC 9)): same activity | Antifungal activity (MIC), C. parapsilosis [1]: 62.5 µg/mL

N#Cc1ccc2nc(-c3ccc(-c4nnc(SCC(=O)c5ccc(Cl)cc5)n4-c4ccccc4)cc3)[nH]c2c1 [6i, 2-(4-(5-((2-(4-Chlorophenyl)-2-oxoethyl)thio)-4-phenyl-4H-1,2,4-triazol-3-yl)phenyl)-1H-benz[d]imidazole-5(6)-carbonitrile]
IC50 (L929 cell lines; Mus musculus, L929 fibroblasts, MTT, maximum dose 100 μM, 48 h, read-out: IC50 against L929): > 100 µM | viability at 48 h, 100 µM [2]: 53.6 ± 2.82% | MIC (C. albicans (ATCC 24433)): 62.5 µg/mL (≈ 114 µM) | MIC (C. krusei (ATCC 6258)): 125 µg/mL (≈ 229 µM) | MIC (C. glabrata (ATCC 9)): 0.97 µg/mL (≈ 1.77 µM) | Effectiveness against C. glabrata compared with fluconazole (C. glabrata (ATCC 9)): four times more effective | Effectiveness against C. glabrata compared with voriconazole (C. glabrata (ATCC 9)): two times more effective | MIC [1]: 31.2 µg/mL (≈ 57.1 µM) | melting point: 197.9 °C

N#Cc1ccc2nc(-c3ccc(-c4nnc(SCC(=O)c5ccc(Cl)cc5Cl)n4-c4ccccc4)cc3)[nH]c2c1 [6j, 2-(4-(5-((2-(2,4-Dichlorophenyl)-2-oxoethyl)thio)-4-phenyl-4H-1,2,4-triazol-3-yl)phenyl)-1H-benz[d]imidazole-5(6)-carbonitrile]
viability at 48 h, 100 µM [2]: 32.5 ± 1.34% | MIC (C. albicans (ATCC 24433)): 62.5 µg/mL (≈ 107 µM) | MIC (C. krusei (ATCC 6258)): 125 µg/mL (≈ 215 µM) | MIC (C. glabrata (ATCC 9)): 0.97 µg/mL (≈ 1.67 µM) | Effectiveness against C. glabrata compared with fluconazole (C. glabrata (ATCC 9)): four times more effective | Effectiveness against C. glabrata compared with voriconazole (C. glabrata (ATCC 9)): two times more effective | MIC [1]: 31.2 µg/mL (≈ 53.7 µM) | melting point: 206.5 °C

N#Cc1ccc2[nH]c(-c3ccc(-c4nnc(SCC(=O)c5cccc([N+](=O)[O-])c5)n4-c4ccccc4)cc3)nc2c1 [6k, 2-(4-(5-((2-(3-Nitrophenyl)-2-oxoethyl)thio)-4-phenyl-4H-1,2,4-triazol-3-yl)phenyl)-1H-benz[d]imidazole-5(6)-carbonitrile]
cell viability (%) (L929 cell lines; 100 µM): 30.3 ± 0.41% | Antifungal activity (MIC), C. albicans (C. albicans (ATCC 24433)): 31.25 µg/mL | Antifungal activity (MIC), C. krusei (C. krusei (ATCC 6258)): 125 µg/mL | Antifungal activity (MIC), C. glabrata (C. glabrata (ATCC 9)): 1.95 µg/mL | Effectiveness against C. glabrata compared with fluconazole (C. glabrata (ATCC 9)): two times more effective | Effectiveness against C. glabrata compared with voriconazole (C. glabrata (ATCC 9)): same activity | Antifungal activity (MIC), C. parapsilosis [1]: 31.25 µg/mL

N#Cc1ccc2[nH]c(-c3ccc(-c4nnc(SCC(=O)c5ccccc5)n4-c4ccccc4)cc3)nc2c1 [6l, 2-(4-(5-((2-Oxo-2-phenylethyl)thio)-4-phenyl-4H-1,2,4-triazol-3-yl)phenyl)-1H-benz[d]imidazole-5(6)-carbonitrile]
cell viability (%) (L929 cell lines; 100 µM): 37.6 ± 3.55% | Antifungal activity (MIC), C. albicans (C. albicans (ATCC 24433)): 31.25 µg/mL | Antifungal activity (MIC), C. krusei (C. krusei (ATCC 6258)): 125 µg/mL | Antifungal activity (MIC), C. glabrata (C. glabrata (ATCC 9)): 1.95 µg/mL | Effectiveness against C. glabrata compared with fluconazole (C. glabrata (ATCC 9)): two times more effective | Effectiveness against C. glabrata compared with voriconazole (C. glabrata (ATCC 9)): same activity | Antifungal activity (MIC), C. parapsilosis [1]: 31.25 µg/mL

OC(Cn1cncn1)(Cn1cncn1)c1ccc(F)cc1F [fluconazole, reference compound]
MIC (C. albicans (ATCC 24433)): 7.81 µg/mL (≈ 25.5 µM) | MIC (C. krusei (ATCC 6258)): 7.81 µg/mL (≈ 25.5 µM) | MIC (C. glabrata (ATCC 9)): 3.9 µg/mL (≈ 12.7 µM) | MIC [1]: 3.9 µg/mL (≈ 12.7 µM)

C[C@@H](c1ncncc1F)[C@](O)(Cn1cncn1)c1ccc(F)cc1F [voriconazole, reference compound]
MIC (C. albicans (ATCC 24433)): 3.9 µg/mL (≈ 11.2 µM) | MIC (C. krusei (ATCC 6258)): 3.9 µg/mL (≈ 11.2 µM) | MIC (C. glabrata (ATCC 9)): 1.95 µg/mL (≈ 5.58 µM) | MIC [1]: 3.9 µg/mL (≈ 11.2 µM)

— article PMC9893751, “Synthesis of Benzimidazole-1,2,4-triazole Derivatives as Potential Antifungal Agents Targeting 14α-Demethylase” (ACS Omega, 2023)
